Experimental findings from ChEMBL document CHEMBL5625251, “Anti-influenza virus activities and mechanism of antrafenine analogs” (Eur J Med Chem, 2023) are described below.

Calls of active or inactive are those of the source. The rule behind the calls is not given here.

The test system of data set [1] is Influenza A virus. In words: Antiviral activity against Influenza A virus A/WSN/33(H1N1) infected in MDCK cells MOI 0.1 assessed as reduction in viral titre at 100 uM pre-infected with cells for 6 hrs followed by compound addition and measured after 4 to 6 hrs post infection by time of addition assay. Format: functional, organism-based.
Data set [2] deals with Influenza A virus. The data set is described as follows: Antiviral activity against Influenza A virus A/PR/8/34 infected in MDCK cells MOI 0.01 assessed as inhibition of viral growth pre-infected for 1 hr followed by compound addition and measured 24 hrs post infection by plaque assay. Format: functional, organism-based. As to conditions: A/PR/8/34, MDCK.
The nature of data set [3]: Selectivity index, ratio of CC50 for cytotoxicity against MDCK cells assessed as reduction in cell viability to IC50 for antiviral activity against Influenza A virus A/WSN/33(H1N1) infected in MDCK cells assessed as inhibition of viral growth. As to conditions: dog, read-out: Ratio CC50/IC50. Format: toxicity, cell-based.
For data set [4], the system named is Influenza A virus. The data set is described as follows: Antiviral activity against Influenza A virus A/WSN/33(H1N1) infected in MDCK cells assessed as inhibition of viral growth pre-infected for 1 hr followed by compound addition and measured 24 hrs post infection by plaque assay. Format: functional, organism-based.
The nature of data set [5]: Selectivity index, ratio of CC50 for cytotoxicity against MDCK cells assessed as reduction in cell viability to IC50 for antiviral activity against Influenza A virus B/Florida/4/06 infected in MDCK cells MOI 0.01 assessed as inhibition of viral growth. Format: toxicity, cell-based. As to conditions: dog, read-out: Ratio CC50/IC50.
Data set [6] has as its system Influenza A virus. In words: Antiviral activity against Influenza A virus A/WSN/33(H1N1) infected in MDCK cells MOI 0.1 assessed as reduction in viral titre at 100 uM pre-infected with cells for 6 hrs followed by compound addition and measured after 2 to 4 hrs post infection by time of addition assay. Format: functional, organism-based.
A short description of data set [7]: Cytotoxicity against African green monkey Vero cells assessed as reduction in cell viability incubated for 48 hrs by MTT assay. Format: toxicity, cell-based. As to conditions: chlorocebus sabaeus. On the technique in general: Tetrazolium dyes change colour on reduction, which living cells bring about.
The test system of data set [8] is Influenza A virus. In words: Antiviral activity against Influenza A virus A/HK/1/68 infected in MDCK cells MOI 0.01 assessed as inhibition of viral growth pre-infected for 1 hr followed by compound addition and measured 24 hrs post infection by plaque assay. As to conditions: A/HK/1/68, MDCK. Format: functional, organism-based.
Data set [9] deals with Influenza A virus. The data set is described as follows: Antiviral activity against Influenza A virus A/WSN/33(H1N1) infected in MDCK cells assessed as reduction in virus-induced cytopathic effect at 25 uM pre-infected with cells for 1 hrs followed by compound addition and measured after 2 days by MTT assay. As to conditions: time 2.0 day. Format: functional, organism-based.

Data set [10] can be described thus: Selectivity index, ratio of CC50 for cytotoxicity against MDCK cells assessed as reduction in cell viability to IC50 for antiviral activity against Influenza A virus A/PR/8/34 infected in MDCK cells MOI 0.01 assessed as inhibition of viral growth. Format: toxicity, cell-based. As to conditions: dog, read-out: Ratio CC50/IC50.
The test system of data set [11] is Influenza A virus. In words: Antiviral activity against Influenza A virus A/WSN/33(H1N1) infected in chicken erythrocytes assessed as reduction in neuraminidase level incubated for 2 hrs. Format: functional, organism-based. As to conditions: Erythrocyte.
Data set [12] in a line: Selectivity index, ratio of CC50 for cytotoxicity against MDCK cells assessed as reduction in cell viability to IC50 for antiviral activity against Influenza A virus A/HK/1/68 infected in MDCK cells MOI 0.01 assessed as inhibition of viral growth. Format: toxicity, cell-based. As to conditions: dog, read-out: Ratio CC50/IC50.
Data set [13] is described as follows: Cytotoxicity against MDCK cells assessed as reduction in cell viability incubated for 48 hrs by MTT assay. Format: toxicity, cell-based, Canis lupus familiaris. As to conditions: dog.
In data set [14] the test system is Influenza A virus. In words: Antiviral activity against Influenza A virus A/WSN/33(H1N1) infected in MDCK cells MOI 0.1 assessed as reduction in viral titre at 100 uM pre-infected with cells for 6 hrs followed by compound addition and measured after 6 to 8 hrs post infection by time of addition assay. Format: functional, organism-based.
For data set [15], the system named is Influenza A virus. The data set is described as follows: Antiviral activity against Influenza A virus A/WSN/33(H1N1) infected in MDCK cells assessed as inhibition of viral growth at 100 uM pre-infected for 1 hr followed by compound addition and measured 24 hrs post infection by plaque assay relative to control. Format: functional. As to conditions: time 23 hrs.

Data set [16] is described as follows: Selectivity index, ratio of CC50 for cytotoxicity against African green monkey Vero cells assessed as reduction in cell viability to IC50 for inhibition of Influenza A virus A/WSN/33(H1N1) Ribonucleoprotein transfected in Vero cells. Format: toxicity, cell-based. As to conditions: read-out: Ratio CC50/IC50.
A short description of data set [17]: Inhibition of Influenza A virus A/WSN/33(H1N1) Ribonucleoprotein transfected in Vero cells incubated for 48 hrs by spectrophotometer analysis. Format: cell-based.
Data set [18] deals with Influenza A virus. The data set is described as follows: Antiviral activity against Influenza A virus B/Florida/4/06 infected in MDCK cells MOI 0.01 assessed as inhibition of viral growth pre-infected for 1 hr followed by compound addition and measured 24 hrs post infection by plaque assay. Format: functional, organism-based. As to conditions: B/Florida/4/06, MDCK.
Data set [19] concerns Influenza A virus. In words: Antiviral activity against Influenza A virus A/WSN/33(H1N1) infected in chicken erythrocytes assessed as reduction in Haemagglutinin level preincubated for 30 mins followed by viral infection and measured after 40 mins. Format: functional, organism-based. As to conditions: Erythrocyte, time 70.0 min.
Data set [20] has as its system Influenza A virus. The data set is described as follows: Antiviral activity against Influenza A virus A/WSN/33(H1N1) infected in MDCK cells MOI 0.1 assessed as reduction in viral titre at 100 uM pre-infected with cells for 6 hrs followed by compound addition and measured after 2 hrs post infection by time of addition assay. Format: functional, organism-based.
The test system of data set [21] is Influenza A virus. The data set is described as follows: Antiviral activity against Influenza A virus A/WSN/33(H1N1) infected in MDCK cells MOI 0.1 assessed as reduction in viral titre at 12.5 uM pre-infected with cells for 6 hrs followed by compound addition and measured after 2 hrs post infection by time of addition assay. Format: functional, organism-based.

Data set [22] concerns the target Nucleoprotein (Influenza A virus (strain A/Wilson-Smith/1933 H1N1), UniProt P15682). In words: Binding affinity to Influenza A virus Nucleoprotein assessed as dissociation constant by MST assay.
In data set [23] the test system is Influenza A virus. The data set is described as follows: Antiviral activity against Influenza A virus A/WSN/33(H1N1) infected in MDCK cells MOI 0.1 assessed as reduction in viral titre at 12.5 uM pre-infected with cells for 6 hrs followed by compound addition and measured after 6 to 8 hrs post infection by time of addition assay. Format: functional, organism-based.

Data set [24] deals with Influenza A virus. In words: Antiviral activity against Influenza A virus A/WSN/33(H1N1) infected in MDCK cells MOI 0.1 assessed as reduction in viral titre at 12 uM pre-infected with cells for 6 hrs followed by compound addition and measured after 2 to 4 hrs post infection by time of addition assay. Format: functional, organism-based.
Data set [25] concerns Influenza A virus. The data set is described as follows: Antiviral activity against Influenza A virus A/WSN/33(H1N1) infected in MDCK cells MOI 0.1 assessed as reduction in viral titre at 12.5 uM pre-infected with cells for 6 hrs followed by compound addition and measured after 4 to 6 hrs post infection by time of addition assay. Further details: scale not given: the % may be the effect or the level left. Format: functional.

For data set [26], the system named is Influenza A virus. In words: Antiviral activity against Influenza A virus A/WSN/33(H1N1) infected in MDCK cells MOI 0.1 assessed as inhibition of viral growth at 12.5 uM pre-infected with cells for 6 hrs followed by compound addition and measured after 2 to 4 hrs post infection by time of addition assay. Format: functional, organism-based.
The target in data set [27] is Polymerase acidic protein (Influenza A virus (A/Puerto Rico/8/1934(H1N1)), UniProt P03433). In words: Binding affinity to C-terminal Influenza A virus Polymerase acidic protein assessed as dissociation constant by MST assay.
Data set [28] relates to Influenza A virus. The data set is described as follows: Antiviral activity against Influenza A virus A/WSN/33(H1N1) infected in MDCK cells assessed as reduction in virus-induced cytopathic effect at 12.5 uM pre-infected with cells for 1 hrs followed by compound addition and measured after 2 days by MTT assay. As to conditions: time 2.0 day. Format: functional, organism-based.

The subject of data set [29] is Influenza A virus. The data set is described as follows: Antiviral activity against Influenza A virus A/WSN/33(H1N1) infected in MDCK cells assessed as reduction in virus-induced cytopathic effect at 100 uM pre-infected with cells for 1 hrs followed by compound addition and measured after 2 days by MTT assay. Format: functional, organism-based. As to conditions: time 2.0 day.

Nucleoprotein, sequence (P15682 whole entry): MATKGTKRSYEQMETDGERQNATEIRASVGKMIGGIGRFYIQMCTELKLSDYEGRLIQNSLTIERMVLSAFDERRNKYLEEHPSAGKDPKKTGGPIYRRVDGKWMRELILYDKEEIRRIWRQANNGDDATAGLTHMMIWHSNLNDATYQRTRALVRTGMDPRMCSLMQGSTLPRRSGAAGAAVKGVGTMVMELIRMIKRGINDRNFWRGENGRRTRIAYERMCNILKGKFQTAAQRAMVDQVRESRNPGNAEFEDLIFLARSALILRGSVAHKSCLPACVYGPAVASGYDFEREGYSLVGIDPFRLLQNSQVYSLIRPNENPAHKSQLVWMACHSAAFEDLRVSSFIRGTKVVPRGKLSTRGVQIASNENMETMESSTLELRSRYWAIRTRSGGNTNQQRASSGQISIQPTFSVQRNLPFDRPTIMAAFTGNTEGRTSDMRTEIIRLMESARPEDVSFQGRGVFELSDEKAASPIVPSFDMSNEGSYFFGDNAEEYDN

What is called IC50 is the concentration needed to halve the response being measured. For orientation: CC50 means the concentration at which the toxic effect on the cells reaches its halfway point. Broadly, the inhibition is the change of the read-out against control, counted positive when it falls. On to `O=C(Nc1cccc([N+](=O)[O-])c1)c1ccccc1Nc1ccnc2cc(C(F)(F)F)ccc12`, for which the result in data set [1], in data set [6], in data set [9] and in data set [20] was Active. The 50% inhibitory concentration (IC50) amounted to 5.5 µM in data set [2]; 5.53 µM in data set [4]; 8.5 µM in [8]; 14 µM in data set [17]; 12 µM in data set [18]. In addition, the selectivity ratio was over 18 in data set [3]; over 8 in data set [5]; over 18 in data set [10]; over 12 in [12]; over 7 in data set [16]. In addition, the CC50 at 48 h in data set [7] and in data set [13] was over 100 µM throughout. Also, the result in data set [11], in [14] and in data set [19] was inactive. Besides, in [15], the inhibition at 100 µM was found to be 99.8%.

One may read the Kd as the constant that tells how readily two partners part at equilibrium. Consider `O=C(NCCCN1CCOCC1)c1ccccc1Nc1ccnc2ccc(Cl)cc12`, for which the IC50 in [2] is 3.94 µM; in [4], 3.21 µM; in data set [8], 3.31 µM; in data set [17], 11.8 µM; in data set [18], 3.32 µM. Besides, the outcome in [21], in data set [24] and in data set [28] was Active. In addition, the selectivity ratio in [3] was over 16; in data set [5] it was over 15; in data set [10], over 13; in data set [12], over 15; in data set [16], over 3. Also, the values for the Kd in data set [22] and in data set [27] were 33 µM and 28.8 µM, respectively. Further, the outcome in data set [23], in [11] and in [19] was inactive. Also, the CC50 at 48 h in data set [7] was 31.4 µM; in data set [13], over 50 µM. Further, in [25], the Activity was found to be 5%. Moreover, the inhibition entry in data set [26] was “Active”.

Turning to `O=C(O)c1ccccc1Nc1ccnc2cc(C(F)(F)F)ccc12`, the result in data set [1], in data set [6], in [29] and in [20] was Active. In addition, the IC50 worked out at 11.3 µM in data set [2]; 6.73 µM in [4]; 27.8 µM in [8]; 19.2 µM in data set [17]; 22.3 µM in data set [18]. The selectivity ratio in data set [3] is over 15; in data set [5] it was over 4; in [10] it was over 9; in data set [12], over 4; in [16] it was over 10. The Kd in [22] was determined as 20.4 µM; in data set [27], 8.36 µM. The CC50 at 48 h in [7] was over 200 µM; in [13], over 100 µM. The result in data set [11], in data set [14] and in data set [19] was inactive. Also, the inhibition at 100 µM in data set [15] was found to be 97.3%.
